How the values were obtained:
[1] = test system: L5178-S murine lymphoma tumors; test: Quantification of DDC uptake into lymphoma tumor after radiotherapy; type: in vivo, mice; conditions: DDC for 2 hours
Protocol: Extraction of DDC uptake compound from cytosolic extracts of organs or tissues for quantitative measurement of DDC uptake: • a. Excising the relevant organ from animals, that were previously injected with DDC. • b. Weighting the organs and homogenize using tissue homogenizer in a cold Buffer-Hepes • c. Following total homogenization, centrifuging the sample at 13,800 rpm for 20 min at 4° C. and transferring the supernatant to a new test tube. • d. Repeating step c and taking the supernatant for quantitative fluorescence evaluation. Alternatively, the supernatant can be stored at −80° C. until use. • e. Placing a sample of 100 ul of organ suspension into each of three wells of a black to microtiter plate. • f. Measuring the fluorescence intensity of DDC (excitation 360 nm, emission 535 nm) using a fluorescence plate reader.
Creating a calibration curve for the fluorescence plate reader using serial dilution of the DDC compound: 1:10, 1:20, 1:40, 1:80, 1:160, 1:320, 1:640, 1:1280.
Murine lymphoma model was established using DBA/2 mice injected subcutaneously with L5178-S murine lymphoma cells. Tumor treatment, by multiply fractionated X-irradiation (3 fractions of 6 Gy/day), started when the tumor reached in diameter 6-8 mm (approximately ten days after tumor implantation). At different time points (24, 48 or 72 hours) following irradiation, mice were injected with DDC for 2 hours. Tumors were harvested from control and radiation-treated animals and processed for quantitative analysis of DDC uptake into the tumor.

[2] = test system: MCF-7 breast carcinoma tumors; test: Detection by DDC of apoptosis in breast carcinoma after irradiation; type: in vivo, mice; conditions: following irradiation (two doses of 8 Gray) vs non irradiated
Protocol: (§1) A. Administration of DDC in-vivo: Injection of 200 μl of DDC intravenously. Following 1-2 hours, animal is sacrificed, and the desired organ is placed in a test tube or on a small plate, suitable for liquid nitrogen freezing. The plate is then covered with an aluminum foil, and transferred to liquid nitrogen. Following 5-30 minutes the specimen is being frozen to −80° C. and kept at −80° C. for at least 16 hr. B. Analysis of the Specimen: • a. Whole organ imaging Ex-vivo whole organ fluorescence imaging may be carried out on freshly excised specimen, that can be analyzed under a stereomicroscope (such as Leica MZ FL III, Leica Switzerland). DDC may be visualized using 360cx and >420cm nm filter set. Emitted fluorescence can be imaged using appropriate camera and software, such as a Leica DC 300F Distal camera and images can be processed and analyzed by Leica QWin Lite software. • b. Histological analysis, from the frozen organ or tissue, 4 μm cryosections are prepared on slides. Analysis of the tissue sections can be performed using a fluorescence microscope with a UV filter characterized by excitation at 360-370 nm (band pass) and emission at 420 nm (barrier filter) In case that staining of the examined tissue is desired, the following procedures can be applied: […]

[3] = test system: C26 colon carcinoma tumors; test: DDC binding versus TUNEL and H&E in colon carcinoma after Doxorubicin; type: in vivo, mice; conditions: 48 h after Doxorubicin 20 mg/kg; consecutive slides
Protocol: as §1

[4] = test system: neuronal cells of the injured brain area; test: Detection by DDC of apoptosis following traumatic brain injury (TBI); type: in vivo, mice; conditions: DDC 24 hr after traumatic injury, brain excised after 2 hr
Protocol: (§2) A. Administration of DDC in-vivo: Injection of 200 μl of DDC intravenously. Following 1-2 hours, animal is sacrificed, and the desired organ is placed in a test tube or on a small plate, suitable for liquid nitrogen freezing. The plate is then covered with an aluminum foil, and transferred to liquid nitrogen. Following 5-30 minutes the specimen is being frozen to −80° C. and kept at −80° C. for at least 16 hr. B. Analysis of the Specimen: • a. Whole organ imaging Ex-vivo whole organ fluorescence imaging may be carried out on freshly excised specimen, that can be analyzed under a stereomicroscope (such as Leica MZ FL III, Leica Switzerland). DDC may be visualized using 360cx and >420cm nm filter set. Emitted fluorescence can be imaged using appropriate camera and software, such as a Leica DC 300F Distal camera and images can be processed and analyzed by Leica QWin Lite software. • b. Histological analysis, from the frozen organ or tissue, 4 μm cryosections are prepared on slides. Analysis of the tissue sections can be performed using a fluorescence microscope with a UV filter characterized by excitation at 360-370 nm (band pass) and emission at 420 nm (barrier filter) In case that staining of the examined tissue is desired, the following procedures can be applied:
TBI model was performed on Balb/C, 8-9 weeks old, according to the protocol detailed in Yun Chen et al., 1996. […]

[5] = test system: cardiomyocytes; test: Focal uptake of DDC in heart following sepsis (CLP); type: in vivo, mice; conditions: 24 h after cecal ligature and perforation
Protocol: as §2
The cecum of anesthetized mice was isolated, ligated distal to the ileocaecal valve, and punctured twice with 26-gauge needle. […]

[6] = test system: red blood cells (RBC); test: Selective binding of DDC to activated red blood cells, flow cytometry; type: cell-based; conditions: DDC 500 μM
Protocol: Activation of intact RBC, was induced by a combined treatment with N-ethylmaleimide (NEM) and calcium ionophore, in the presence of Ca 2+.
Fresh RBC were obtained, diluted to 0.1 of their initial volume with buffer A (143 mM NaCl; 2 mM KCl; 0.1% Glucose; 10 mM NaH2PO4; pH=7.4), and washed 4 times in the above buffer. Cells were then re-suspended in buffer B (55 mM NaCl; 90 mM KCl, 0.1% glucose, 10 mM HEPES; pH=7.4). These cells were thereafter used as control cells. For activation, the cells were treated for 15-60 min at 37° C. with a combination of 2 mM CaCl, 5 μM of the Calcium ionophore A23187 and 5 mm of NEM. Cells were then washed twice with buffer B containing 0.1% of bovine serum albumin, and finally re-suspended in Buffer B containing 2 mM CaCl2 For examination of binding of DDC to the cells, DDC was dissolved in 0.1M NaPPi, pH=7.4, at a stock concentration of 1 mM. Binding assays were performed at a final concentration of 500 μM, and level of binding was evaluated by flow cytometry.

## CN(C)c1cccc2c(S(=O)(=O)NC(CSSCC(NS(=O)(=O)c3cccc4c(N(C)C)cccc34)C(=O)O)C(=O)O)cccc12 (stereo not drawn) [DDC]
[1]; 24 hours following X-irradiation (3 fractions of 6 Gy/day)
  DDC uptake into the tumor, times higher over the control mean values: 3.68 times
[1]; 48 hours following X-irradiation (3 fractions of 6 Gy/day)
  DDC uptake into the tumor, times higher over the control mean values: 4.69 times
[1]; 72 hours following X-irradiation (3 fractions of 6 Gy/day)
  DDC uptake into the tumor, times higher over the control mean values: 6.74 times
[2]
  uptake of DDC into single cells of the tumor: increased uptake
[3]
  correlation of DDC staining with H&E and TUNEL staining: highly correlated with both H&E (C) and TUNEL (B) staining
[4]
  correlation of DDC staining with H&E staining: correlated with H&E staining
[5]
  fluorescence of DDC in cardiomyocytes following sepsis: can be seen in single cardiomyocites
[6]; RBC activated by NEM, calcium ionophore A23187 and Ca2+
  staining of red blood cells with DDC: substantial shift to higher fluorescence levels
[6]; intact RBC
  staining of red blood cells with DDC: did not stain significantly

Reference: patent US7510825B2, “Kits and methods for detection of apoptotic cells” (NST NeuroSurvival Technologies Ltd, priority 2000, dated 2009)
